Results taken from ChEMBL document CHEMBL5291721, “A preclinical secondary pharmacology resource illuminates target-adverse drug reaction associations of marketed drugs” (Nat Commun, 2023).

Legend:
Endothelin-1 receptor = molecular target: T1, Endothelin-1 receptor (Homo sapiens, UniProt P25101)
T1 sequence (P25101 whole entry): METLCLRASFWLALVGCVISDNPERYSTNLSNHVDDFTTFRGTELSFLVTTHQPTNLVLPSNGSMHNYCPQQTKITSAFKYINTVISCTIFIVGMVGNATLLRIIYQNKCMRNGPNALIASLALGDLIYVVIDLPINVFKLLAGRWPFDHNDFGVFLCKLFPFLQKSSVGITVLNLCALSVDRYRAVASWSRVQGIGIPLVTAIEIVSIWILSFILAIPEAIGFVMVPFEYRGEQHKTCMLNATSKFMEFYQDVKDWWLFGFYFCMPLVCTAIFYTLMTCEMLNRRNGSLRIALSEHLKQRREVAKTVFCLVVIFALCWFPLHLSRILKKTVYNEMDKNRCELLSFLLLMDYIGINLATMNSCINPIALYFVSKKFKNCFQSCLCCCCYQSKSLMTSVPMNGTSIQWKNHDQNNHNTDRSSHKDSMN

[1] = molecular target: T2, 5-hydroxytryptamine receptor 1A (Homo sapiens, UniProt P08908); assay type: functional, cell-based
T2 sequence (P08908 whole entry): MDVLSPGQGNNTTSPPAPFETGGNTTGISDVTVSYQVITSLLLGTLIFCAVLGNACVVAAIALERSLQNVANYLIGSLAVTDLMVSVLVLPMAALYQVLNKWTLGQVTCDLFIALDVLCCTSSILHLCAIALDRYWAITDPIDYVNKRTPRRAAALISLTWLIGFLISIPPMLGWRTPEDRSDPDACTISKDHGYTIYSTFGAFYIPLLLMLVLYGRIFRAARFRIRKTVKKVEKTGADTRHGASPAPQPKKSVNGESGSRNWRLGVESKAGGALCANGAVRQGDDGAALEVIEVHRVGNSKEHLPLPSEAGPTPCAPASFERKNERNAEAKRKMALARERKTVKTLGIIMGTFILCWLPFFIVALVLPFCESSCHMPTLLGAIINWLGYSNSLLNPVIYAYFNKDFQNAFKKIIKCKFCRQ

[2] = molecular target: 5-hydroxytryptamine receptor 2A (Homo sapiens, UniProt P28223); assay type: functional, cell-based
[3] = molecular target: T2, 5-hydroxytryptamine receptor 1A; assay type: functional, cell-based; remark: listed apart in the source
Cannabinoid receptor 1 [4] = molecular target: T3, Cannabinoid receptor 1 (Homo sapiens, UniProt P21554); assay type: functional, cell-based
[5] = molecular target: T4, Sodium-dependent dopamine transporter (Homo sapiens, UniProt Q01959)
D(1A) dopamine receptor = D(1A) dopamine receptor (Homo sapiens, UniProt P21728); assay type: functional, cell-based
D(3) dopamine receptor = D(3) dopamine receptor (Homo sapiens, UniProt P35462)
[6] = molecular target: T5, Gamma-aminobutyric acid receptor subunit alpha-1 (Rattus norvegicus, UniProt P62813); assay type: functional
[7] = molecular target: T6, Alpha-2C adrenergic receptor (Homo sapiens, UniProt P18825); assay type: functional
T6 sequence (P18825 whole entry): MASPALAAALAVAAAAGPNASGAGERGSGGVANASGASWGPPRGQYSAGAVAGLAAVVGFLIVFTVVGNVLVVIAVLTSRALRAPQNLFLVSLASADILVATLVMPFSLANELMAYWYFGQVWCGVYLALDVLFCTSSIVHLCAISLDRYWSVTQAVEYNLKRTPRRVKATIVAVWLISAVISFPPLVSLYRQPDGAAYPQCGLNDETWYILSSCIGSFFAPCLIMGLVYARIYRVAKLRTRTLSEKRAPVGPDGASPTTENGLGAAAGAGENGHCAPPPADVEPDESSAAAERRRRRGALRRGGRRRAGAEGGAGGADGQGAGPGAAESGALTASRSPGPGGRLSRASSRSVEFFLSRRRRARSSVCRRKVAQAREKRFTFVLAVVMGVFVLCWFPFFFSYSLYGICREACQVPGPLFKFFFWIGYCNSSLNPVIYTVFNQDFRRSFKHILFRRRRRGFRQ

Cannabinoid receptor 1 [8] = molecular target: T3, Cannabinoid receptor 1; assay type: functional, cell-based; remark: listed apart in the source
Histamine H3 receptor [9] = molecular target: T7, Histamine H3 receptor (Homo sapiens, UniProt Q9Y5N1)
Adenosine receptor A2a = Adenosine receptor A2a (Homo sapiens, UniProt P29274)
[10] = molecular target: T8, Alpha-2A adrenergic receptor (Homo sapiens, UniProt P08913); assay type: functional, cell-based
T8 sequence (P08913 whole entry): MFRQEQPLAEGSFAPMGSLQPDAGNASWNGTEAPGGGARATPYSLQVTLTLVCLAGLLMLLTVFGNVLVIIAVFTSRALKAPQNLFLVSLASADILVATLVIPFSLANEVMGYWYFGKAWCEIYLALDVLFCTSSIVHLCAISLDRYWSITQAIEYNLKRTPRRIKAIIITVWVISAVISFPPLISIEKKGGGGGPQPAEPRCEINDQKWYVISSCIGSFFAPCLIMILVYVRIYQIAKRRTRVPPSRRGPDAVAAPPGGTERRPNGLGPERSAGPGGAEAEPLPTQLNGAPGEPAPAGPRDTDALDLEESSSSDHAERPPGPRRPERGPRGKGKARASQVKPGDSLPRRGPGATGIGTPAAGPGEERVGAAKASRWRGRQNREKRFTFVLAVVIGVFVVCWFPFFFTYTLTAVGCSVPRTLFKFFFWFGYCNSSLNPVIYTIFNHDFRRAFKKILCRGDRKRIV

[11] = molecular target: T5, Gamma-aminobutyric acid receptor subunit alpha-1
[12] = molecular target: Kappa-type opioid receptor (Homo sapiens, UniProt P41145)
Mu-type opioid receptor [13] = molecular target: T9, Mu-type opioid receptor (Homo sapiens, UniProt P35372); test: biochemical; assay type: functional
[14] = molecular target: T4, Sodium-dependent dopamine transporter; remark: listed apart in the source
Mu-type opioid receptor [15] = molecular target: T9, Mu-type opioid receptor
Histamine H3 receptor [16] = molecular target: T7, Histamine H3 receptor; remark: listed apart in the source
Also: assay procedure not described here.

D(3) dopamine receptor, sequence (P35462 whole entry): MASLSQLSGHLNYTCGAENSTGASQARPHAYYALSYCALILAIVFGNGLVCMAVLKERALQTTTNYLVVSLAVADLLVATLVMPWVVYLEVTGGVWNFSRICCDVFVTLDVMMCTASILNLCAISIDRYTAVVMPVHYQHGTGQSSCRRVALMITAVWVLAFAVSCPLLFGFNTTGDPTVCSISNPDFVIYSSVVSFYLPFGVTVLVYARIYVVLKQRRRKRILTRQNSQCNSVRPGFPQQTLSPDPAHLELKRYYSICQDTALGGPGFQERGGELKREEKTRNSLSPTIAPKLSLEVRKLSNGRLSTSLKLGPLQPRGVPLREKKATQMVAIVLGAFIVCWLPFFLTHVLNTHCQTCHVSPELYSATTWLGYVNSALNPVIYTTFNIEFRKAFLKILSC
5-hydroxytryptamine receptor 2A, sequence (P28223 whole entry): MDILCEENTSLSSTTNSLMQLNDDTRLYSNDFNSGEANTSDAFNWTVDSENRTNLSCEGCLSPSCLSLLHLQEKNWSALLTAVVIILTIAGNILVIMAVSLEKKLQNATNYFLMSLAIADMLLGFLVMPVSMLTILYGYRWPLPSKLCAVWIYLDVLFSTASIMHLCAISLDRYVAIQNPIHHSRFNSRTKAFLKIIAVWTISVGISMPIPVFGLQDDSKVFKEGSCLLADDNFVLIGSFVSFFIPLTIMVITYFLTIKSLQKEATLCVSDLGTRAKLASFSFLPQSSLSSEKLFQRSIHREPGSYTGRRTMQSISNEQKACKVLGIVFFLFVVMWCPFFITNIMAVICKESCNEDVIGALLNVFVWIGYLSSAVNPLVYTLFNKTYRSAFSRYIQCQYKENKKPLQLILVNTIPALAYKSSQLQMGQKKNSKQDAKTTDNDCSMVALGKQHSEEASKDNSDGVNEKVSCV
T7 sequence (Q9Y5N1 whole entry): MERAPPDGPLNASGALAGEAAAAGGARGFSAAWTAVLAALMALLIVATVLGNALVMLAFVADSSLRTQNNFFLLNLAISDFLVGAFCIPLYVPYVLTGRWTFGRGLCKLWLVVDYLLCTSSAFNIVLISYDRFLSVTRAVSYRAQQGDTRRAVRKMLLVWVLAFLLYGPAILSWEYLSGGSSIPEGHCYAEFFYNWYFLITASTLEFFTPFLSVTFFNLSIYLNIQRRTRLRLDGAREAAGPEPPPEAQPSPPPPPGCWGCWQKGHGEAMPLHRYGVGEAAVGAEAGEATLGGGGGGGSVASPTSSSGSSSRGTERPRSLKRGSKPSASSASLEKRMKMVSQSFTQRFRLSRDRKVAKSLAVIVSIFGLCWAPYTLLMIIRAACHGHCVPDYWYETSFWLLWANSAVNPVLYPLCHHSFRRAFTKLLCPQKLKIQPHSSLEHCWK
D(1A) dopamine receptor, sequence (P21728 whole entry): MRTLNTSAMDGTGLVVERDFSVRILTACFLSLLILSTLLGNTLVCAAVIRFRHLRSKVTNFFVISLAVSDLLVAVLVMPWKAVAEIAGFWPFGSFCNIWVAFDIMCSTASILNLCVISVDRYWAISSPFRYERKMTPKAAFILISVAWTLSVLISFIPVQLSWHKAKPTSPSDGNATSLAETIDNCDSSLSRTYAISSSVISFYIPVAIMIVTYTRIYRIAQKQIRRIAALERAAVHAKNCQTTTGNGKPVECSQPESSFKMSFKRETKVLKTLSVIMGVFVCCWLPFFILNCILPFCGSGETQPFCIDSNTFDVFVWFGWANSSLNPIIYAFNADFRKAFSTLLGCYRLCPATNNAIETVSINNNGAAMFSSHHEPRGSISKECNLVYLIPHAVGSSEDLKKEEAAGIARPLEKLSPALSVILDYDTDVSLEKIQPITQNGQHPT
Adenosine receptor A2a, sequence (P29274 whole entry): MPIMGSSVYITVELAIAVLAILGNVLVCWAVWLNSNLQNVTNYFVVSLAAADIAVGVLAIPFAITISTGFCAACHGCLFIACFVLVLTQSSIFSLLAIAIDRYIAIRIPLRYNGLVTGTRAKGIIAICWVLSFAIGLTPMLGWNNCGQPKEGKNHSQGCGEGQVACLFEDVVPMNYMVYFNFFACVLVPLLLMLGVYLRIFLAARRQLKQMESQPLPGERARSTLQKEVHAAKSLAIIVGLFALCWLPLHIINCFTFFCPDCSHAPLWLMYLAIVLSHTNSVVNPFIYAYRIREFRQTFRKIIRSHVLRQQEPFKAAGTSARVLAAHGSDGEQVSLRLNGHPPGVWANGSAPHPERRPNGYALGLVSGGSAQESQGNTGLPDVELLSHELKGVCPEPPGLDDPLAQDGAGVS
Kappa-type opioid receptor, sequence (P41145 whole entry): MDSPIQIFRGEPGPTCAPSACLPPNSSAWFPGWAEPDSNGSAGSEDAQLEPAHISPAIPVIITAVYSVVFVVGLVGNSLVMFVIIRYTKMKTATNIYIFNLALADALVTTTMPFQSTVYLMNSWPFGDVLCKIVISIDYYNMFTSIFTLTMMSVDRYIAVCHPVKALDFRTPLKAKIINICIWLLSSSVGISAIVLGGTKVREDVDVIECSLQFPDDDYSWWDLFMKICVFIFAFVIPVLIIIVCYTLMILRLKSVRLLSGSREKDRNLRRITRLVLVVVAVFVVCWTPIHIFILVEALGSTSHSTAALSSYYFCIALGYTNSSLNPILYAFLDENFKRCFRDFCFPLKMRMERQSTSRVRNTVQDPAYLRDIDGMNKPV
T4 sequence (Q01959 whole entry): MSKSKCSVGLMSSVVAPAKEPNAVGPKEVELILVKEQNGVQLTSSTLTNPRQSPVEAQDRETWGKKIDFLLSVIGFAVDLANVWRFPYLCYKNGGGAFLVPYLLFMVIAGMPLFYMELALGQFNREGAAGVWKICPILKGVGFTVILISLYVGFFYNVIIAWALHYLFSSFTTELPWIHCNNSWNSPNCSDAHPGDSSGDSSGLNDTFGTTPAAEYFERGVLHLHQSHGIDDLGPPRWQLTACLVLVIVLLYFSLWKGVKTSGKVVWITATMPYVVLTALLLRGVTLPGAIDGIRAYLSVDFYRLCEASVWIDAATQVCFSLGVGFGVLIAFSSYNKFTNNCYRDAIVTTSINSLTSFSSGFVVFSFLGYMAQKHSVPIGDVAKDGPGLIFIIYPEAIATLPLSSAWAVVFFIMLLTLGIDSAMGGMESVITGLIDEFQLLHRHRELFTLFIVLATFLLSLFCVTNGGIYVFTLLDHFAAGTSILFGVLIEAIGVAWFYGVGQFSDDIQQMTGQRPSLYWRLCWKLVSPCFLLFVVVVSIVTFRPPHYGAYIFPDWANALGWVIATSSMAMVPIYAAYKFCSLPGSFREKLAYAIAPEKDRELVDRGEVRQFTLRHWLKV
T3 sequence (P21554 whole entry): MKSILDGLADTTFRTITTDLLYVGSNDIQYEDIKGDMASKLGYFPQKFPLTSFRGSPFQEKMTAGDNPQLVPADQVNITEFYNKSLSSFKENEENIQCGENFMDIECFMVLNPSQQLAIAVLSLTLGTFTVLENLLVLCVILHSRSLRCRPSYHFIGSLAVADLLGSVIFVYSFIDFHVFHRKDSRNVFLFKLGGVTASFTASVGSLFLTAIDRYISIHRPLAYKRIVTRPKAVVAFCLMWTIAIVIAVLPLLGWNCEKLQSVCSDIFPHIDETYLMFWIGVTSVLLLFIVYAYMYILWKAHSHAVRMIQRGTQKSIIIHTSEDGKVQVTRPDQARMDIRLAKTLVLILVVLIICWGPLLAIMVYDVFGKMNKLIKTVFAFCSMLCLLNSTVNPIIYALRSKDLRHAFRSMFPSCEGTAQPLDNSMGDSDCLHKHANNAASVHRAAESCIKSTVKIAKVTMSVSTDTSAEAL
T5 sequence (P62813 whole entry): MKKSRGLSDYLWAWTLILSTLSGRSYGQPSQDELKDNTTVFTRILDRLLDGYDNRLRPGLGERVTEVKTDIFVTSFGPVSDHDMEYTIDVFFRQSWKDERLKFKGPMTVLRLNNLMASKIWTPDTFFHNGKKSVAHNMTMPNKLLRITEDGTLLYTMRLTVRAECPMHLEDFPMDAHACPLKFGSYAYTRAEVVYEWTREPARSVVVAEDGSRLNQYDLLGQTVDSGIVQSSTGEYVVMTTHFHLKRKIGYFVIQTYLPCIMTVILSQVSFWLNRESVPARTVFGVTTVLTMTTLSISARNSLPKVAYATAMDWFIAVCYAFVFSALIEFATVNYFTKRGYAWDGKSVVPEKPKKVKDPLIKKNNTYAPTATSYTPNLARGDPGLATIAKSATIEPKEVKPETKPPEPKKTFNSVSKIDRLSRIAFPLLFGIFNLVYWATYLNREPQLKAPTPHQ
T9 sequence (P35372 whole entry): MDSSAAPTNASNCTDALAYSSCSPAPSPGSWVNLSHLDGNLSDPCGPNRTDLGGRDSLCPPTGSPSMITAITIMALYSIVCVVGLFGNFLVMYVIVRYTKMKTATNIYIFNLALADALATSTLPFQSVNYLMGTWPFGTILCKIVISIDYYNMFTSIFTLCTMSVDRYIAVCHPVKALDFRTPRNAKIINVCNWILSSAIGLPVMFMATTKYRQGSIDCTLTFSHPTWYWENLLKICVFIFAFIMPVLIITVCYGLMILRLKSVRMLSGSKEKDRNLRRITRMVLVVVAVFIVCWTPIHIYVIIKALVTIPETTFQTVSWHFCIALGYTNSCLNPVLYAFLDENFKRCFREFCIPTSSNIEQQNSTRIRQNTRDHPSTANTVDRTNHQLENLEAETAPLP

CC(=O)c1ccc2c(c1)N(CCCN1CCN(CCO)CC1)c1ccccc1S2 [ACETOPHENAZINE] was tested, and the AC50 (Endothelin-1 receptor) was greater than 30 µM, the AC50 [1] was 0.007 µM and the AC50 [2] was 0.87 µM. For the same molecule, the AC50 [3] was greater than 30 µM, the AC50 (Cannabinoid receptor 1 [4]) was greater than 30 µM and the AC50 [5] was 25 µM. The AC50 (D(1A) dopamine receptor) was greater than 30 µM, the AC50 (D(3) dopamine receptor) was 0.0044 µM and the AC50 [6] was greater than 30 µM. For the same molecule, the AC50 [7] was 0.72 µM, the AC50 (Cannabinoid receptor 1 [8]) was greater than 30 µM and the AC50 (Histamine H3 receptor [9]) was 21 µM. For the same molecule, the AC50 (Adenosine receptor A2a) was greater than 30 µM and the AC50 [10] was greater than 30 µM.
Work on CC(N)Cc1ccccc1 (centres undefined) [AMPHETAMINE] yielded an AC50 (Endothelin-1 receptor) greater than 30 µM, an AC50 [1] greater than 30 µM and an AC50 [2] greater than 30 µM. The AC50 [3] was greater than 30 µM, the AC50 (Cannabinoid receptor 1 [4]) was greater than 30 µM and the AC50 [11] was greater than 10 µM. For the same molecule, the AC50 (D(3) dopamine receptor) was greater than 30 µM, the AC50 [6] was greater than 30 µM and the AC50 [12] was greater than 10 µM. It also gave an AC50 [7] greater than 30 µM, an AC50 (Cannabinoid receptor 1 [8]) greater than 30 µM and an AC50 (Histamine H3 receptor [9]) greater than 30 µM. For the same molecule, the AC50 (Adenosine receptor A2a) was 11 µM and the AC50 [10] was greater than 30 µM.
Molecule COC(=O)N[C@H](C(=O)N[C@@H](Cc1ccccc1)[C@@H](O)CN(Cc1ccc(-c2ccccn2)cc1)NC(=O)[C@@H](NC(=O)OC)C(C)(C)C)C(C)(C)C [ATAZANAVIR] has an AC50 [1] greater than 10 µM, an AC50 [2] greater than 10 µM and an AC50 [3] greater than 10 µM. It also gave an AC50 [5] greater than 30 µM, an AC50 [11] greater than 10 µM and an AC50 (D(1A) dopamine receptor) greater than 10 µM. The AC50 (D(3) dopamine receptor) was greater than 30 µM, the AC50 [6] was greater than 10 µM and the AC50 [12] was 1.06 µM. The AC50 [7] was greater than 10 µM, the AC50 (Histamine H3 receptor [9]) was greater than 10 µM and the AC50 (Adenosine receptor A2a) was greater than 30 µM. It also gave an AC50 [10] greater than 10 µM.
With CN1CCCC(n2nc(Cc3ccc(Cl)cc3)c3ccccc3c2=O)CC1 (centres undefined) [AZELASTINE] the AC50 (Endothelin-1 receptor) was greater than 30 µM, the AC50 [1] was greater than 30 µM and the AC50 [2] was 4.6 µM. The AC50 [3] was greater than 30 µM, the AC50 (Cannabinoid receptor 1 [4]) was greater than 30 µM and the AC50 [5] was 7.3 µM. It also gave an AC50 (D(1A) dopamine receptor) greater than 30 µM, an AC50 (D(3) dopamine receptor) of 6.5 µM and an AC50 [6] greater than 30 µM. The AC50 [7] was 2.4 µM, the AC50 (Cannabinoid receptor 1 [8]) was greater than 30 µM and the AC50 (Histamine H3 receptor [9]) was 16 µM. It also gave an AC50 (Adenosine receptor A2a) greater than 30 µM and an AC50 [10] greater than 30 µM.
With O=C(O)c1cc(-c2ccc(F)cc2F)ccc1O [DIFLUNISAL] the AC50 [1] was greater than 10 µM, the AC50 [3] was greater than 10 µM and the AC50 [5] was greater than 10 µM. The AC50 [11] was greater than 10 µM, the AC50 (D(1A) dopamine receptor) was greater than 30 µM and the AC50 (D(3) dopamine receptor) was greater than 30 µM. For the same molecule, the AC50 (Mu-type opioid receptor [13]) was greater than 30 µM, the AC50 [6] was greater than 10 µM and the AC50 [12] was greater than 10 µM. It also gave an AC50 [7] greater than 10 µM, an AC50 (Adenosine receptor A2a) greater than 10 µM and an AC50 [10] greater than 10 µM.
In the case of COc1cc2c(cc1OC)C(=O)C(CC1CCN(Cc3ccccc3)CC1)C2 (centres undefined) [DONEPEZIL], the AC50 (Endothelin-1 receptor) is reported as greater than 30 µM, the AC50 [14] is reported as 9.78 µM and the AC50 [2] is reported as greater than 30 µM. For the same molecule, the AC50 (Mu-type opioid receptor [15]) was greater than 30 µM, the AC50 (Cannabinoid receptor 1 [4]) was greater than 30 µM and the AC50 [5] was greater than 30 µM. The AC50 [11] was greater than 10 µM, the AC50 (D(1A) dopamine receptor) was greater than 10 µM and the AC50 (Histamine H3 receptor [16]) was 5.2 µM. It also gave an AC50 [6] greater than 10 µM, an AC50 [12] greater than 10 µM and an AC50 [7] of 6.2 µM. The AC50 (Cannabinoid receptor 1 [8]) was greater than 30 µM, the AC50 (Histamine H3 receptor [9]) was 2.5 µM and the AC50 (Adenosine receptor A2a) was greater than 30 µM. For the same molecule, the AC50 [10] was greater than 10 µM.
With COC(=O)[C@@H]1CC2=CC(=O)CC[C@]2(C)[C@@]23O[C@@H]2C[C@@]2(C)[C@@H](CC[C@@]24CCC(=O)O4)[C@H]13 [EPLERENONE] the AC50 (Endothelin-1 receptor) was greater than 30 µM, the AC50 [1] was greater than 30 µM and the AC50 [2] was greater than 30 µM. The AC50 [3] was greater than 30 µM, the AC50 (Cannabinoid receptor 1 [4]) was greater than 30 µM and the AC50 [5] was greater than 30 µM. For the same molecule, the AC50 [11] was greater than 10 µM, the AC50 (D(1A) dopamine receptor) was greater than 30 µM and the AC50 (D(3) dopamine receptor) was greater than 30 µM. It also gave an AC50 [6] greater than 10 µM, an AC50 [12] greater than 10 µM and an AC50 [7] greater than 30 µM. For the same molecule, the AC50 (Cannabinoid receptor 1 [8]) was greater than 30 µM, the AC50 (Histamine H3 receptor [9]) was greater than 30 µM and the AC50 (Adenosine receptor A2a) was greater than 30 µM. It also gave an AC50 [10] greater than 30 µM.
